Measured values as given in ChEMBL document CHEMBL4808148, “HDAC6 screening dataset using tau-based substrate in an enzymatic assay yields selective inhibitors and activators” (2021).

Tests used:
[1] = target: Protein deacetylase HDAC6 (Homo sapiens) (UniProt Q9UBN7); details: at 10 µM
[2] = target: T1, Protein deacetylase HDAC6 (Homo sapiens, UniProt Q9UBN7)
T1 sequence (Q9UBN7 whole entry): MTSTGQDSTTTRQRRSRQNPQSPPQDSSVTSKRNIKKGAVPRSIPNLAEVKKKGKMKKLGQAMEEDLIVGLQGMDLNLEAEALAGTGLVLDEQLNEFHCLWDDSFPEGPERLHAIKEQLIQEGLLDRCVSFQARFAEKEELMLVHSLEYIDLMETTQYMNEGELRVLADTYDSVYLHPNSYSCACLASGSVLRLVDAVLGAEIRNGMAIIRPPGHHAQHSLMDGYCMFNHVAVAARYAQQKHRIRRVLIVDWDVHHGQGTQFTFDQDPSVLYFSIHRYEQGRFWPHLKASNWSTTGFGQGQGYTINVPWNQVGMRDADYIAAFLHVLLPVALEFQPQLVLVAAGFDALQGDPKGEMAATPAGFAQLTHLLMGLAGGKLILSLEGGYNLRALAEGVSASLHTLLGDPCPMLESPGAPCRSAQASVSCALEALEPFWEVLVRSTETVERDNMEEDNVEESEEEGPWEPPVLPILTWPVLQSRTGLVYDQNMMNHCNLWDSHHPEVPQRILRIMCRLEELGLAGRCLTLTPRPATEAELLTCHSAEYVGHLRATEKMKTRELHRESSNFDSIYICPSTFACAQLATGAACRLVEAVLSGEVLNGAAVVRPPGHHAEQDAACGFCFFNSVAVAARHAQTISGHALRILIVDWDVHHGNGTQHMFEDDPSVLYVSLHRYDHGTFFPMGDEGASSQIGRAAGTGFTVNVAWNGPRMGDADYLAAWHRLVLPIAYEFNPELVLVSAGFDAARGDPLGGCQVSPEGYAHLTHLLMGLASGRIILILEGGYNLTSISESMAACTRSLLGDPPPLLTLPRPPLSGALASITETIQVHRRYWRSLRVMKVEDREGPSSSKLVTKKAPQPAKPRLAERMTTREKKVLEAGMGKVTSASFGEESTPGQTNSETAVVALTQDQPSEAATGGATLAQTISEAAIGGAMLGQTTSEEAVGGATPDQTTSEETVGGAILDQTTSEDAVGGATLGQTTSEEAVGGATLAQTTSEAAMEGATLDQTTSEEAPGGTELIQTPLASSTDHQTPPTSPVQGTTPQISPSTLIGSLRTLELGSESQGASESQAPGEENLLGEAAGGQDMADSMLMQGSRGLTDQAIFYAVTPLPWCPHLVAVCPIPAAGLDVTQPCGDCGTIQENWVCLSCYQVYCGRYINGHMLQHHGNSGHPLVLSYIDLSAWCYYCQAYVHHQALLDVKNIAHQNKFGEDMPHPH

[3] = target: T1, Protein deacetylase HDAC6; remark: listed apart in the source
[4] = target: T2, Protein deacetylase HDAC6 (Homo sapiens) (UniProt Q9UBN7); details: at 10 µM; remark: listed apart in the source
T2 sequence (whole entry): T1 sequence (Q9UBN7 whole entry)

FLUPENTIXOL [listing 1 of 2 here]
inhibition [1]: 89.4%

FLUPENTIXOL [listing 2 of 2 here]
IC50 [2]: 1550 nM

Cc1cc(-c2ccc(/N=N/c3ccc4c(S(=O)(=O)O)cc(S(=O)(=O)O)c(N)c4c3O)c(C)c2)ccc1/N=N/c1ccc2c(S(=O)(=O)O)cc(S(=O)(=O)O)c(N)c2c1O [EVANS BLUE FREE ACID]
IC50 [3]: 1950 nM | inhibition [4]: 88.6%

O=C(c1ccc(/C=C/c2n[nH]c3ccccc23)cc1)N1CCNCC1 [KW-2449]
IC50 [3]: 2260 nM | inhibition [4]: 84.1%

Nc1nc(N)c2nc(-c3cccc(O)c3)cnc2n1
IC50 [3]: 1470 nM | inhibition [4]: 85.3%

PHENYLMERCURIC ACETATE
inhibition [1]: 60.2%

COc1ccc2[nH]c(C(=O)c3ccccc3)cc2c1
IC50 [3]: 772 nM | inhibition [4]: 103%

Cc1nc2ccc(NC(=O)Nc3ccnc4cccnc34)cc2o1
IC50 [3]: 1460 nM | inhibition [4]: 95.3%

O=C1c2ccccc2-n2c1nc1ccccc1c2=O [TRYPTANTHRIN]
IC50 [3]: 3290 nM | inhibition [4]: 82.7%

CCN(CC)c1ccc(C(=C2C=CC(=[N+](CC)CC)C=C2)c2ccccc2)cc1
IC50 [3]: 1280 nM | inhibition [4]: 105%

Cc1cccc(Nc2nc(-c3ccncc3)cs2)c1
IC50 [3]: 203 nM | inhibition [4]: 81.1%

Cc1cc(/C=C2\SC(=O)N(c3ccccc3)C2=O)c(C)n1-c1cccnc1
IC50 [3]: 518 nM | inhibition [4]: 106%

Cc1nc2c(OCc3ccccc3)cccn2c1CC#N
IC50 [3]: 355 nM | inhibition [4]: 83.6%

CN(C)CCOC1=Cc2ccccc2Sc2ccc(Cl)cc21 [ZOTEPINE]
IC50 [3]: 602 nM | inhibition [4]: 105%

COc1cccc2c1C(=O)c1c(O)c3c(c(O)c1C2=O)C[C@@](O)(C(=O)CO)C[C@@H]3O[C@H]1C[C@H](N)[C@H](O[C@@H]2CCCCO2)[C@H](C)O1 [PIRARUBICIN]
IC50 [3]: 1260 nM | inhibition [4]: 94.5%
